Test system: K98450-129-R-PDC multicell spheroids, viability
Experiment: Anticancer human tumor K98450-129-R-PDC patient-derived colon adenocarcinoma cell line growth inhibition [PI3K]
Conditions: for IC50: curve of first compound; for viability, T/C: stronger effect = lower value
Excerpt: Combinatorial screen of targeted agents with the PI3K inhibitors inavolisib, alpelisib, duvelisib, and copanlisib in multi-cell type tumor spheroids
A high-throughput screen of multi-cell type tumor spheroids was designed to identify active combinations of targeted small molecules and PI3K pathway inhibitors. Complex spheroids include a stromal component modeled by human endothelial cells (HUVEC) and fibroblasts modeled by human mesenchymal stem cells (MSCs). The concentration ranges selected for each drug and investigational agent were based upon clinically achievable concentrations if the clinical Cmax of the agent was known.
Compounds. The drugs and investigational agents: inavolisib (NSC800729), alpelisib (NSC765974), duvelisib (NSC772469), copanlisib (NSC816437), ipatasertib (NSC767898), afuresertib (NSC778305), talazoparib (NSC767125), sapanisertib (NSC764658), selumetinib (NSC741078), tovorafenib (DAY101, NSC766906), vemurafenib (NSC761431), ravoxertinib (NSC781343), sotorasib (NSC818433), MRTX1133 (NSC 836407), abemaciclib (NSC 768073), palbociclib (NSC758247), venetoclax (NSC 766270), SY5609 (NSC837396), enzalutamide (NSC755605), and darolutamide (NSC825331), were obtained from the National Cancer Institute (NCI) Developmental Therapeutics Program Chemical Repository. The FDA-approved anticancer drug set is available from the NCI Developmental Therapeutics Program. […] The stock solutions were prepared in dimethyl sulfoxide (DMSO, Sigma-Aldrich, St. Louis, MO, cat. D2650) at 800-fold the tested concentration and stored at -70 degrees C prior to their use. All drugs and investigational agents were tested over a range starting from a high concentration at or near the clinical Cmax and decreasing in half-log increments. If the clinical Cmax for an agent had not been determined, the highest concentration tested was 10 microM.
Cell Culture. All cells were maintained in an incubator at 37 degrees C and 5% CO2 with 95% humidity. The PDC lines were cultured according to standard operating procedures established by the NCI PDMR (https://pdmr.cancer.gov/sops/default.htm). All PDCs were thawed and cultured in Matrigel-coated flasks prepared with a working solution of 1X Ham's F-12 nutrient mix, without supplementation (Invitrogen, Waltham, MA, cat. 11765054), 100 U/mL penicillin-streptomycin (Invitrogen, cat. 15140122), and 2.5% Matrigel (Corning Inc., Corning, NY, cat. 354248) for the first three passages. The 354836-022-R-J1-PDC, 475296-252-R-J1-PDC, and 997726-040-R-J2-PDC lines were cultured in 6A media, which includes advanced DMEM/F-12 (Thermo Fisher Scientific, cat. 12634028), 10 mM HEPES (Thermo Fisher Scientific, cat. 15630080), 1X GlutaMAX supplement (Thermo Fisher Scientific, cat. 35050061), 0.1 mg/mL primocin (InvivoGen, San Diego, CA, cat. ant-pm-2), 10% defined fetal bovine serum, heat inactivated (HyClone Laboratories Inc., Logan, UT, cat. SH30070.03HI), 50% L-WRN conditioned media (ATCC, cat. CRL-3276), 1.25 mM N-Acetyl-L-cysteine (Sigma-Aldrich, cat. A9165), 10 mM nicotinamide (Sigma-Aldrich, cat. N0636), 1X B-27 supplement (Thermo Fisher Scientific, cat. 17504044), 1X N-2 supplement (Thermo Fisher Scientific, cat. 17502048), and 10 microM Y-27632 dihydrochloride (Tocris Bioscience, Bristol, United Kingdom, cat. 1254). The 624824-186-R-J2-PDC line was cultured in 6C/Colon 1B media, which includes all 6A media components plus 50 ng/mL human EGF recombinant protein (Thermo Fisher Scientific, cat. PHG0311). […]

[1] = second compound 0.0316 µM, first compound 0.0316 µM
[2] = second compound 0.0316 µM, first compound 0.1 µM
[3] = second compound 0.0316 µM, first compound 0.316 µM
[4] = second compound 0.0316 µM, first compound 1 µM
[5] = second compound 0.0316 µM, first compound 3.16 µM
[6] = second compound 0.0316 µM, first compound 10 µM
[7] = second compound 0.1 µM, first compound 0.0316 µM
[8] = second compound 0.1 µM, first compound 0.1 µM
[9] = second compound 0.1 µM, first compound 0.316 µM
[10] = second compound 0.1 µM, first compound 1 µM
[11] = second compound 0.1 µM, first compound 3.16 µM
[12] = second compound 0.1 µM, first compound 10 µM
[13] = second compound 0.316 µM, first compound 0.0316 µM
[14] = second compound 0.316 µM, first compound 0.1 µM
[15] = second compound 0.316 µM, first compound 0.316 µM
[16] = second compound 0.316 µM, first compound 1 µM
[17] = second compound 0.316 µM, first compound 3.16 µM
[18] = second compound 0.316 µM, first compound 10 µM
[19] = second compound 1 µM, first compound 0.0316 µM
[20] = second compound 1 µM, first compound 0.1 µM
[21] = second compound 1 µM, first compound 0.316 µM
[22] = second compound 1 µM, first compound 1 µM
[23] = second compound 1 µM, first compound 3.16 µM
[24] = second compound 1 µM, first compound 10 µM
[25] = second compound 3.16 µM, first compound 0.0316 µM
[26] = second compound 3.16 µM, first compound 0.1 µM
[27] = second compound 3.16 µM, first compound 0.316 µM
[28] = second compound 3.16 µM, first compound 1 µM
[29] = second compound 3.16 µM, first compound 3.16 µM
[30] = second compound 3.16 µM, first compound 10 µM
[31] = second compound 10 µM, first compound 0.0316 µM
[32] = second compound 10 µM, first compound 0.1 µM
[33] = second compound 10 µM, first compound 0.316 µM
[34] = second compound 10 µM, first compound 1 µM
[35] = second compound 10 µM, first compound 3.16 µM
[36] = second compound 10 µM, first compound 10 µM
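Also: spheroids exposed to agents for seven days before read-out.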

Which results are given for C[C@@H](NC(=O)c1ncnc(N)c1Cl)c1ncc(C(=O)Nc2cc(C(F)(F)F)c(Cl)cn2)s1 + CC(Nc1ncnc2nc[nH]c12)c1cc2cccc(Cl)c2c(=O)n1-c1ccccc1?
IC50 (second compound 0.0316 µM): > 10 µM; IC50 (second compound 0.1 µM): > 10 µM; IC50 (second compound 0.316 µM): > 10 µM; IC50 (second compound 1 µM): > 10 µM; IC50 (second compound 3.16 µM): > 10 µM; IC50 (second compound 10 µM): > 10 µM; viability, T/C [1]: 113%; viability, T/C [2]: 108%; viability, T/C [3]: 117%; viability, T/C [4]: 124%; viability, T/C [5]: 109%; viability, T/C [6]: 104%; viability, T/C [7]: 123%; viability, T/C [8]: 106%; viability, T/C [9]: 119%; viability, T/C [10]: 108%; viability, T/C [11]: 123%; viability, T/C [12]: 96%; viability, T/C [13]: 107%; viability, T/C [14]: 118%; viability, T/C [15]: 103%; viability, T/C [16]: 108%; viability, T/C [17]: 126%; viability, T/C [18]: 96.1%; viability, T/C [19]: 115%; viability, T/C [20]: 106%; viability, T/C [21]: 102%; viability, T/C [22]: 106%; viability, T/C [23]: 126%; viability, T/C [24]: 86.8%; viability, T/C [25]: 92.3%; viability, T/C [26]: 112%; viability, T/C [27]: 95.8%; viability, T/C [28]: 120%; viability, T/C [29]: 123%; viability, T/C [30]: 101%; viability, T/C [31]: 95.5%; viability, T/C [32]: 106%; viability, T/C [33]: 90.9%; viability, T/C [34]: 103%; viability, T/C [35]: 124%; viability, T/C [36]: 78%

What does the source list for CC1(C)CCC(CN2CCN(c3ccc(C(=O)NS(=O)(=O)c4ccc(NCC5CCOCC5)c([N+](=O)[O-])c4)c(Oc4cnc5[nH]ccc5c4)c3)CC2)=C(c2ccc(Cl)cc2)C1 + Cc1nc(NC(=O)N2CCCC2C(N)=O)sc1-c1ccnc(C(C)(C)C(F)(F)F)c1?
IC50 (second compound 0.0316 µM): 6.03 µM; IC50 (second compound 0.1 µM): 5.71 µM; IC50 (second compound 0.316 µM): 5.78 µM; IC50 (second compound 1 µM): 5.4 µM; IC50 (second compound 3.16 µM): 5.16 µM; IC50 (second compound 10 µM): 4.66 µM; viability, T/C [1]: 105%; viability, T/C [2]: 101%; viability, T/C [3]: 106%; viability, T/C [4]: 100%; viability, T/C [5]: 98.3%; viability, T/C [6]: 12.2%; viability, T/C [7]: 104%; viability, T/C [8]: 96.9%; viability, T/C [9]: 104%; viability, T/C [10]: 95%; viability, T/C [11]: 92.5%; viability, T/C [12]: 9.67%; viability, T/C [13]: 99.5%; viability, T/C [14]: 95.5%; viability, T/C [15]: 98.6%; viability, T/C [16]: 92.4%; viability, T/C [17]: 93.5%; viability, T/C [18]: 10.5%; viability, T/C [19]: 88.4%; viability, T/C [20]: 94.4%; viability, T/C [21]: 94.9%; viability, T/C [22]: 91%; viability, T/C [23]: 88.4%; viability, T/C [24]: 5.86%; viability, T/C [25]: 80.6%; viability, T/C [26]: 87.4%; viability, T/C [27]: 86%; viability, T/C [28]: 84.3%; viability, T/C [29]: 83%; viability, T/C [30]: 5.29%; viability, T/C [31]: 70%; viability, T/C [32]: 73.9%; viability, T/C [33]: 72.9%; viability, T/C [34]: 68.5%; viability, T/C [35]: 77%; viability, T/C [36]: 5.54%

Reference: PubChem BioAssay AID1963961 (Molecular Pharmacology Branch, DTP, NCI, 2024)
